From patent publication US8741934B2, “Inhibitors of ion channels” (Pfizer Limited, priority 2007, dated 2014)
Each block holds one compound with its values, some of them ahead of it.

Biological target: T1, hSCN3A sodium channels (Homo sapiens, UniProt Q9NY46)
T1 construct: expressed in transfected cells
Experiment: hSCN3A electrophysiology, whole-cell patch-clamp or PatchXpress 7000, estimated IC-50 (Table B)
Format: cell-based
Conditions: estimated IC-50; hSCN3A cells, whole-cell patch-clamp or PatchXpress 7000; read-out: SCN3A EIC-50
Procedure, shortened: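 Stably transfected HEK cells, whole-cell voltage clamp at 22-24° C, manual or PatchXpress 7000. Cells held at empirically determined inactivation V1/2; current evoked by 20 msec step to 0 mV after 8 sec prepulse to V1/2.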

T1 sequence (Q9NY46 whole entry): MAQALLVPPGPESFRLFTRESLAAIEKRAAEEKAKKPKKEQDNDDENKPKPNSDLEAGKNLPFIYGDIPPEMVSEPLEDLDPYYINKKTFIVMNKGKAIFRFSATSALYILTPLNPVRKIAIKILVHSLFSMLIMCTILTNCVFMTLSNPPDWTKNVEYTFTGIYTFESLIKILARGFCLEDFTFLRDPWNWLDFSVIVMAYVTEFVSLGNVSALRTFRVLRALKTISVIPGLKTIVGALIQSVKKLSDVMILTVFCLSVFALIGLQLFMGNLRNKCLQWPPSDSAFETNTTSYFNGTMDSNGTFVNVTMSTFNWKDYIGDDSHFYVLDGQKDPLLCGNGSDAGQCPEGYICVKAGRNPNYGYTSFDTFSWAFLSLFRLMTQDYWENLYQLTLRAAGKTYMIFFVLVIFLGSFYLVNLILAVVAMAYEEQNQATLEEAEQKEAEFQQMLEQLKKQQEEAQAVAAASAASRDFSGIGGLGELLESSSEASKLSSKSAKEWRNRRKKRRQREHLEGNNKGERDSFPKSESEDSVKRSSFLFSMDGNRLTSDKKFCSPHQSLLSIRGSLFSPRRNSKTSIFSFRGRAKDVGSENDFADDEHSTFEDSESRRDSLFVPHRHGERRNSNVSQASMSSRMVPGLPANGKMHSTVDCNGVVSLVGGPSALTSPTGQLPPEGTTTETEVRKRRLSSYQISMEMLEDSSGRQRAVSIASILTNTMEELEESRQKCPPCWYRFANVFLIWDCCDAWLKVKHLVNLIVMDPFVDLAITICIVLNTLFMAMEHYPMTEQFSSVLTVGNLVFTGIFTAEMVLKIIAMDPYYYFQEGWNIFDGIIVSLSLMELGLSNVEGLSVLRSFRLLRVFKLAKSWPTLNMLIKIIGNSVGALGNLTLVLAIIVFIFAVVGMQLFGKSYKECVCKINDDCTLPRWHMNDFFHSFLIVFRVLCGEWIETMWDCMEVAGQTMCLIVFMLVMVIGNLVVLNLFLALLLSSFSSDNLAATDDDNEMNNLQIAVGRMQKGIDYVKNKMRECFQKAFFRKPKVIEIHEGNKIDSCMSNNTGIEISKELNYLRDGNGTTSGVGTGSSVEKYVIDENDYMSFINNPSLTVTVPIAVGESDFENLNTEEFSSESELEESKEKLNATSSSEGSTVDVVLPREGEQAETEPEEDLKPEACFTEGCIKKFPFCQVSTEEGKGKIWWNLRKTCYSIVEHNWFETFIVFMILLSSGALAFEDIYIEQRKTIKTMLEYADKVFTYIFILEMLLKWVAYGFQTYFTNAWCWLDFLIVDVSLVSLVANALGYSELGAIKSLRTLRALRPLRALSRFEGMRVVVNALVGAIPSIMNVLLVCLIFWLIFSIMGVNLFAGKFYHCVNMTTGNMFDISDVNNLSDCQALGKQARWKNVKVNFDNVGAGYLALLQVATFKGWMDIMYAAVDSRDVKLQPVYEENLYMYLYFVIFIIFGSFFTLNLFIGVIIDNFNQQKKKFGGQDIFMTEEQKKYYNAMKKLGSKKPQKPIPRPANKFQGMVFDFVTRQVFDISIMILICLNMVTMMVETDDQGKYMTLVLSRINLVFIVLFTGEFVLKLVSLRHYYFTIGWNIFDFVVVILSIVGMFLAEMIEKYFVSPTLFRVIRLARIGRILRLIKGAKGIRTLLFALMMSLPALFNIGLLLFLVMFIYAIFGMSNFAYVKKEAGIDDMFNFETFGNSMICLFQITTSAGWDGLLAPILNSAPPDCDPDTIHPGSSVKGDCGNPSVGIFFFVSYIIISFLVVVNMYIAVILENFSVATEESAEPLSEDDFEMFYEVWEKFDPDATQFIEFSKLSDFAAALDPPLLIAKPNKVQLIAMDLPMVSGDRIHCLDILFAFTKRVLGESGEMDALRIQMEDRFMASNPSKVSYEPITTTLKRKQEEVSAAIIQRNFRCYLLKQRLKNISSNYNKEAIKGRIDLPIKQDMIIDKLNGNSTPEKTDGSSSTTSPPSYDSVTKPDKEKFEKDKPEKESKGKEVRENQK

Compound: O=C(NCc1ccc(OC(F)(F)F)cc1)c1ccc(S(=O)(=O)Nc2ncc(Cl)s2)c(F)c1 [Example 314, 4-{[(5-Chloro-1,3-thiazol-2-yl)amino]sulfonyl}-3-fluoro-N-[4-(trifluoromethoxy)benzyl]benzamide]
IC50: 70 nM

Compound: O=C(NCc1ccc(OC(F)(F)F)cc1)c1ccc(S(=O)(=O)Nc2nccs2)c(Cl)c1 [Example 284, 3-Chloro-4-[(1,3-thiazol-2-ylamino)sulfonyl]-N-[4-(trifluoromethoxy)benzyl]benzamide]
IC50: 1220 nM

Compound: O=C(NCCc1cccc(C(F)(F)F)c1)c1ccc(S(=O)(=O)Nc2nccs2)cc1 [Example 74, 4-[(1,3-Thiazol-2-ylamino)sulfonyl]-N-{2-[3-(trifluoromethyl)phenyl]ethyl}benzamide]
IC50: 540 nM

Compound: O=C(c1ccc(S(=O)(=O)Nc2nccs2)cc1)N1CCCC(Cc2ccc(F)cc2)C1 (stereo not drawn) [Example 222, 4-{[3-(4-Fluorobenzyl)piperidin-1-yl]carbonyl}-N-1,3-thiazol-2-yl-benzenesulfonamide]
IC50: 980 nM

Compound: O=C(NCc1ccccc1OC(F)(F)F)c1ccc(S(=O)(=O)Nc2nccs2)cc1 [Example 78, 4-[(1,3-Thiazol-2-ylamino)sulfonyl]-N-[2-(trifluoromethoxy)benzyl]benzamide]
IC50: 1630 nM

Compound: O=C(NCc1cccc(OC(F)F)c1)c1ccc(S(=O)(=O)Nc2nccs2)cc1 [Example 63, N-[3-(difluoromethoxy)benzyl]-4-[(1,3-thiazol-2-ylamino)sulfonyl]benzamide]
IC50: 1090 nM

IC50: 350 nM
Compound: O=C(NCc1cccc(C(F)(F)F)c1)c1ccc(S(=O)(=O)Nc2nccs2)c(F)c1 [Example 302, 3-Fluoro-4-[(1,3-thiazol-2-ylamino)sulfonyl]-N-[3-(trifluoromethyl)benzyl]benzamide]

Compound: O=C(NC1CCc2ccccc21)c1ccc(S(=O)(=O)Nc2nccs2)cc1 (stereo not drawn) [Example 158, N-(2,3-dihydro-1H-inden-1-yl)-4-[(1,3-thiazol-2-ylamino)sulfonyl]benzamide]
IC50: 2390 nM

Compound: O=C(NCc1ccc(F)c(F)c1)c1ccc(S(=O)(=O)Nc2nccs2)cc1F [Example 329, N-(3,4-difluorobenzyl)-2-fluoro-4-[(1,3-thiazol-2-ylamino)sulfonyl] benzamide]
IC50: 360 nM

Compound: O=C(NCc1ccc(Cl)cc1Cl)c1ccc(S(=O)(=O)Nc2nccs2)cc1 [Example 413, N-(24-dichlorobenzyl)-4-[(1,3-thiazol-2-ylamino)sulfonyl] benzamide]
IC50: 180 nM

Compound: O=C(NCc1ccc(-c2ccccc2)cc1)c1ccc(S(=O)(=O)Nc2nccs2)cc1 [Example 399, N-(biphenyl-4-ylmethyl)-4-[(1,3-thiazol-2-ylamino)sulfonyl] benzamide]
IC50: 30 nM

Compound: Cc1cc(NC(=O)c2ccc(S(=O)(=O)Nc3nccs3)cc2)cnc1C [Example 175, N-(5,6-dimethylpyridin-3-yl)-4-[(1,3-thiazol-2-ylamino)sulfonyl]benzamide]
IC50: 4050 nM

Compound: O=C(NCc1ccc(F)c(Cl)c1)c1ccc(S(=O)(=O)Nc2nccs2)c(F)c1 [Example 299, N-(3-chloro-4-fluorobenzyl)-3-fluoro-4-[(1,3-thiazol-2-yl-amino)sulfonyl]benzamide]
IC50: 110 nM

Compound: Cc1ccc(C2(O)CCN(C(=O)c3ccc(S(=O)(=O)Nc4nccs4)cc3)CC2)cc1 [Example 252, 4-{[4-Hydroxy-4-(4-methylphenyl)piperidin-1-yl]carbonyl}-N-1,3-thiazol-2-yl-benzenesulfonamide]
IC50: 2110 nM

Compound: O=C(NCCc1ccc(Cl)cc1)c1ccc(S(=O)(=O)Nc2nccs2)cc1 [Example 72, N-[2-(4-chlorophenyl)ethyl]-4-[(1,3-thiazol-2-ylamino)sulfonyl]benzamide]
IC50: 660 nM

Compound: CC(CNC(=O)c1ccc(S(=O)(=O)Nc2nccs2)cc1)c1ccc(Cl)cc1 (stereo not drawn) [Example 133, N-[2-(4-chlorophenyl)propyl]-4-[(1,3-thiazol-2-ylamino)sulfonyl]benzamide]
IC50: 1150 nM

Compound: O=C(NCc1ccc(C(F)(F)F)cc1)c1ccc(S(=O)(=O)Nc2nccs2)nc1 [Example 417, 6-[(1,3-Thiazol-2-ylamino)sulfonyl]-N-[4-(trifluoromethyl)benzyl]nicotinamide]
IC50: 210 nM

Compound: O=C(NCc1ccc(Cl)c(Cl)c1)c1ccc(S(=O)(=O)Nc2nccs2)c(F)c1 [Example 297, N-(3,4-dichlorobenzyl)-3-fluoro-4-[(1,3-thiazol-2-ylamino)sulfonyl]benzamide]
IC50: 60 nM

Compound: Cc1cnc(NS(=O)(=O)c2ccc(C(=O)NCc3ccc(C(F)(F)F)cc3)cc2)s1 [Example 22, 4-{[(5-methyl-1,3-thiazol-2-yl)amino]sulfonyl}-N-[4-(trifluoromethyl)benzyl] benzamide]
IC50: 950 nM

Compound: O=C(NCc1ccc(F)c(OC(F)(F)F)c1)c1ccc(S(=O)(=O)Nc2ncc(Cl)s2)c(F)c1 [Example 313, 4-{[(5-Chloro-1,3-thiazol-2-yl)amino]sulfonyl}-3-fluoro-N-[4-fluoro-3-(trifluoromethoxy)benzyl]benzamide]
IC50: 160 nM

Compound: CC(NC(=O)c1ccc(S(=O)(=O)Nc2nccs2)cc1)c1ccc(C(F)(F)F)cc1 (stereo not drawn) [Example 118, 4-[(1,3-Thiazol-2-ylamino)sulfonyl]-N-{1-[4-(trifluoromethyl)phenyl]ethyl}benzamide]
IC50: 760 nM

Compound: Cc1ccc(Cl)cc1CNC(=O)c1ccc(S(=O)(=O)Nc2nccs2)cc1 [Example 64, N-(5-chloro-2-methylbenzyl)-4-[(1,3-thiazol-2-ylamino)sulfonyl]benzamide]
IC50: 450 nM

Compound: O=C(NCc1ccc(F)c(Cl)c1)c1ccc(S(=O)(=O)Nc2nccs2)cc1F [Example 332, N-(3-chloro-4-fluorobenzyl)-2-fluoro-4-[(1,3-thiazol-2-ylamino)sulfonyl] benzamide]
IC50: 380 nM

Compound: O=C(NCc1ccc(Cl)c(F)c1)c1ccc(S(=O)(=O)Nc2nccs2)c(Cl)c1 [Example 292, 3-Chloro-N-(4-chloro-3-fluorobenzyl)-4-[(1,3-thiazol-2-yl-amino)sulfonyl]benzamide]
IC50: 900 nM

Compound: Cc1nc(NS(=O)(=O)c2ccc(C(=O)NCc3ccc(C(F)(F)F)cc3)cc2)cs1 [Example 15, 4-{[(2-Methyl-1,3-thiazol-4-yl)amino]sulfonyl}-N-[4-(trifluoromethyl)benzyl]benzamide]
IC50: 31000 nM

Compound: Cc1nn(C)c(C)c1NS(=O)(=O)c1ccc(C(=O)NCc2ccc(C(F)(F)F)cc2)cc1 [Example 27, N-[4-(Trifluoromethyl)benzyl]-4-{[(1,3,5-trimethyl-1H-pyrazol-4-yl)amino]sulfonyl}benzamide]
IC50: 23300 nM

Compound: O=C(NCc1ccc(F)c(C(F)(F)F)c1)c1ccc(S(=O)(=O)Nc2ncc(Cl)s2)cc1 [Example 34, 4-{[(5-Chloro-1,3-thiazol-2-yl)amino]sulfonyl}-N-[4-fluoro-3-(trifluoromethyl)benzyl]benzamide]
IC50: 90 nM

Compound: O=C(NCc1ccc(Cl)c(F)c1)c1ccc(S(=O)(=O)Nc2ncc(Cl)s2)c(Cl)c1 [Example 369, 3-Chloro-N-(4-chloro-3-fluorobenzyl)-4-{[(5-chloro-1,3-thiazol-2-yl)amino]sulfonyl} benzamide]
IC50: 6170 nM

Compound: N#CCCN(Cc1ccccc1)C(=O)c1ccc(S(=O)(=O)Nc2nccs2)cc1 [Example 218, N-benzyl-N-(2-cyanoethyl)-4-[(1,3-thiazol-2-yl-amino)sulfonyl]benzamide]
IC50: 21200 nM

Compound: O=C(NCc1ccc(C(F)(F)F)cc1)c1ccc(S(=O)(=O)Nc2cscn2)cc1 [Example 13, 4-[(1,3-Thiazol-4-ylamino)sulfonyl]-N-[4-(trifluoromethyl)benyzyl]benzamide]
IC50: 680 nM

Compound: CCc1nsc(NS(=O)(=O)c2ccc(C(=O)NCc3ccc(C(F)(F)F)cc3)cc2)n1 [Example 19, 4-{[(3-Ethyl-1,2,4-thiadiazol-5-yl)amino]sulfonyl}-N-[4-(trifluoromethyl)benzyl]benzamide]
IC50: 13800 nM

Compound: O=C(c1ccc(S(=O)(=O)Nc2nccs2)cc1)N1CCO[C@@H]2Cc3ccccc3[C@@H]21 [Example 53, 4-[(4aS,9aR)-2,3,9,9a-tetrahydroindeno[2,1-b][1,4]oxazin-4(4aH)-ylcarbonyl]-N-1,3-thiazol-2-ylbenzenesulfonamide]
IC50: 2860 nM

Compound: O=C(NCc1ccc(OC(F)(F)F)cc1)c1ccc(S(=O)(=O)Nc2ncc(Cl)s2)cc1F [Example 360, 4-{[(5-Chloro-1,3-thiazol-2-yl)amino]sulfonyl}-2-fluoro-N-[4-(trifluoromethoxy)benzyl]benzamide]
IC50: 160 nM

Compound: O=C(Nc1cnn(Cc2ccc(Cl)cc2)c1)c1ccc(S(=O)(=O)Nc2ncc(Cl)s2)c(F)c1 [Example 381, N-[1-(4-chlorobenzyl)-1H-pyrazol-4-yl]-4-{[(5-chloro-1,3-thiazol-2-yl)amino]sulfonyl}-3-fluorobenzamide]
IC50: 120 nM

Compound: O=C(NCC1(c2ccc(Cl)cc2)CC1)c1ccc(S(=O)(=O)Nc2ncns2)c(F)c1 [Example 382, N-{[1-(4-chlorophenyl)cyclopropyl]methyl}-3-fluoro-4-[(1,2,4-thiadiazol-5-ylamino)sulfonyl]benzamide]
IC50: 140 nM

Compound: O=C(NCc1ccc(F)c(F)c1)c1ccc(S(=O)(=O)Nc2ncc(Cl)s2)cc1 [Example 33, 4-{[(5-Chloro-1,3-thiazol-2-yl)amino]sulfonyl}-N-(3,4-difluorobenzyl)benzamide]
IC50: 150 nM

Compound: O=C(NCc1ccc(C(F)(F)F)c(Cl)c1)c1ccc(S(=O)(=O)Nc2ncns2)cc1 [Example 324, N-[3-chloro-4-(trifluoromethyl)benzyl]-4-[(1,2,4-thiadiazol-5-ylamino)sulfonyl]benzamide]
IC50: 30 nM

Compound: O=C(NCc1ccc(C(F)(F)F)c(F)c1)c1ccc(S(=O)(=O)Nc2ncns2)cc1 [Example 323, N-[3-fluoro-4-(trifluoromethyl)benzyl]-4-[(1,2,4-thiadiazol-5-ylamino)sulfonyl]benzamide]
IC50: 190 nM

Compound: O=C(NCc1ccc(-n2cccn2)cc1)c1ccc(S(=O)(=O)Nc2nccs2)cc1 [Example 60, N-[4-(1H-pyrazol-1-yl)benzyl]-4-[(1,3-thiazol-2-ylamino)sulfonyl]benzamide]
IC50: 1500 nM
